In patent US20150238519A1, “THERAPY FOR DRUG RESISTANT CANCER” (University of Central Florida Research Foundation, Inc., priority 2014, published 2015):

Tests used:
Frabin (FGD4) = assay: Western blotting of Frabin in extracts of CDX treated LNCaP-104S cells; format: cell-based; details: western blot
Source text: FIG. 2. Expression of FGD4 in untreated LNCap-104R1, LNCaP-104S and LNCaP-104S cells treated with CDX and androgen withdrawal. FIG. 2 A: Western blot of the whole cell extracts. FIG. 2 B: Densitometric analysis of the expression. Data represents the average of 3 separate analyses.
Identification of targets regulated by our candidate miRNAs by MiRDB and TargetScan database search reveled a protein Frabin (FGD4), a GEF that is potentially regulated by mir-17, -21a and -106a and received higher target scores in both searches.

[1] = tested on: mir-17, mir-18a, mir-18b, mir-20a and mir-106a; assay: Genome-wide miRNA array profiling of LNCaP-104S cells upon CDX treatment; format: cell-based; details: CDX (5 μM) treatment and androgen blockade (CSFBS), vs untreated LNCaP-104S
Source text: We used genome-wide miRNA array (1113 unique primers System Biosciences) profiling approach to dentify specific miRNAs that compensate for androgen ablation. Androgen-dependent (AD) subline of LNCaP cells LNCaP-104S (-104S) and its androgen independent (AI) derivative LNCaP-104R1 (-104R1) were used for monitoring differential expression of miRNAs upon treatment with casodex (CDX). LNCaP-104S cells are CDX-sensitive, whereas LNCaP-104R1 cells are not despite these cells express androgen receptor (AR) at a basal level higher than LNCaP-104S cells. LNCaP-104S cells require DHT for maintaining their AD status but when treated with CDX for 3 weeks in CSFBS (charcoal-stripped FBS), CDX insensitive colonies develop that are independent of androgen (CDXR). We profiled miRNA expression in −104S cells untreated and at 1 wk and 3 wks of treatment with CDX (5 μM) and CSFBS (Table 1). We also compared miRNA expression in untreated −104R1 cells. The ΔΔCT values were obtained for each sample (treatment condition) using LNCaP-104S untreated as the control.

LNCaP-104S cells = details: androgen-dependent LNCaP-104S; cited from earlier work
LNCaP-104R1 cells = details: androgen independent LNCaP-104R1; cited from earlier work

CC(O)(CS(=O)(=O)c1ccc(F)cc1)C(=O)Nc1ccc(C#N)c(C(F)(F)F)c1 (stereo not shown) [CDX]
increase in expression of Frabin (Frabin (FGD4)): > 2.0 fold
down regulation of mir-17, mir-18a, mir-18b, mir-20a and mir-106a [1]: 9-10 fold
CDX sensitivity (LNCaP-104S cells): CDX-sensitive
CDX sensitivity (LNCaP-104R1 cells): are not
